A short description of data set [1]: organ toxicity testing after 14 days of treatment (Example 4). Format: in vivo, mice and rats. As to conditions: any conditions. On the procedure: (§1) Six weeks old Black/6 mice (mixed race) and F344 female rats were grown on regular lab chow and had access to food and water ad libidum. Treatment started at day 0, with four mice (2 males and 2 females) and 4 rats per group. The animals received the peptide of amino acid sequence SEQ ID NO:4 or physiological salt solution once daily. The mice and rats were dosed according to the following schedule: • Group 1: Mice, salt solution intraperitoneally; • Groups 2 and 3: Mice 0.1 mg/kg/day or 0.01 mg/kg/day peptide of amino acid sequence SEQ ID NO:4 intraperitoneally in 100 microliter salt solution; • Groups 4 and 5: Mice 1 mg/kg/day or 0.1 mg/kg/day peptide of amino acid sequence SEQ ID NO:4 subcutaneously (under the shoulder blade) in 100 microliter salt solution; • Groups 6 and 7: Mice 10 mg/kg/day or 1 mg/kg/day peptide of amino acid sequence SEQ ID NO:4 orally in 100 microliter salt solution; • Group 8: Rats, 10 microliter salt solution, intranasally; • Group 9: Rats. 0.1 mg/kg/day peptide of amino acid sequence SEQ ID NO:4 intranasally in 10 microliter salt solution.
After 14 days the animals were sacrificed and their liver, brain, kidneys and spleen were submitted for toxicity testing.

Data set [2] concerns LN229 (glioma) cells (ObR-positive). Format: cell-based. To be noted: 2 h. The source says: (§2) Immunol. Methods 94:57-63).
Data set [3] is described as follows: chronic and acute toxicity. Type of data set: in vivo, mice. On the procedure: The peptide of amino acid sequence SEQ ID NO:4 was evaluated for chronic and acute toxicity in mice. Three female Black/6 mice received intraperitoneally either bolus 0.5 mg/kg or 2 mg/kg or 30 mg/kg peptide SEQ ID NO:4, or 0.5 mg/kg/day or 2 mg/kg/day peptide SEQ ID NO:4 over a 10 day period. Two days after termination of the experiments, the mice were weighed and sacrificed, and the livers, brains, spleens and kidneys were weighed.

The subject of data set [4] is MCF-7 breast cancer cells (ObR-positive). Format: cell-based, human.
Description: as §2

Data set [5] is described as follows: weight gain of growing mice. Type of data set: in vivo. The protocol:
as §1, with “solution. […]” for “solution.”
The therapeutic utility of full ObR antagonists was studied further by the ability of peptide of amino acid sequence SEQ ID NO:4 to increase the appetite of normal, growing mice as measured by accelerated weight gain and increased food intake upon various modes of peptide administration. […]

Data set [6] has as its system ObR-positive cancer cells (brain and breast). Type of data set: cell-based. On the procedure: The effect of the peptides of the invention on the proliferation of ObR-positive cancer cells (brain and breast) in the presence (IC50) or absence (EC50) of exogenous leptin protein (6 nM) is summarized in Table 1.
Data set [7] in a line: serum stability. Format: in vitro ADME, mouse. The protocol: The stabilities of the peptides of amino acid sequence SEQ ID NO:4 and SEQ ID NO:49 were determined in 25% serum, and 100% serum, in terms of their half-lives. For serum stability studies, […] of an aqueous peptide stock solution, containing about 0.8 mg/mL peptide, were added to 2.5 mL of 25% or 100% aqueous pooled mouse serum. The peptide-serum mixture was thermostated at 37° C. After 0 min, 45 min, 60 min, 90 min, 2 h, 4 h, and 8 h, three 210 μL of the samples of peptides were taken and precipitated by the addition of 40 μL of 15% aqueous trichloroacetic acid. The samples were stored at 4° C. for 20 min and centrifuged. The supernatants were immediately frozen in dry-ice, and […], of each were analyzed on RP-HPLC and/or MALDI-MS.

The subject of data set [8] is two brain tumor cell lines. Put plainly: leptin receptor antagonism in brain tumor cell lines. Format: cell-based.
Data set [9] relates to ObR-positive cancer cells (brain and breast). Type of data set: cell-based. As to conditions: presence of exogenous leptin (6 nM).
For data set [10] the following is noted: mouse, in vivo, ip.
[11] abbreviates: ip bolus 0.5, 2 or 30 mg/kg, or 0.5 or 2 mg/kg/day for 10 days.
Setting [12] is: 25% aqueous pooled mouse serum, 37° C., read-out: half-life in 25% serum.
[13] abbreviates: 100% pooled mouse serum, 37° C., read-out: half-life in 100% serum.
The mark [14] stands for this setting: mouse serum, read-out: half-life in mouse serum.

Like-named read-outs stand apart in the source and are kept apart here. Where a SMILES comes first, the peptide text is derived from it. Where no end group is shown, it is not given here. [ ]: non-standard residue; d: D form. NMeR = CN[C@@H](CCCNC(=N)N)C(=O)O; aThr = C[C@H](O)[C@H](N)C(=O)O; Nva = CCC[C@H](N)C(=O)O; Ahx = NCCCCCC(=O)O; βAla = NCCC(=O)O

With `CCC[C@H](NC(=O)[C@H](CCC(=O)O)NC(=O)[C@@H](N)[C@@H](C)O)C(=O)N[C@H](C(=O)N[C@@H](C)C(=O)N[C@@H](CC(C)C)C(=O)N[C@@H](CO)C(=O)N[C@@H](CCCNC(=N)N)C(=O)NCCCCCC(N)=O)C(C)C` [SEQ ID NO:4, Thr-Glu-Nva-Val-Ala-Leu-Ser-Arg-AcpNH2] (H-TE[Nva]VALSR[Ahx]-NH2), the “toxic effects in liver, brain, kidneys and spleen” value in data set [1] is reported as “No obvious toxic effects”. In addition, the IC50 in [2] and in [4] (2 h) was 2 to 3 nM in each case. Besides, the NOAEL in data set [3] (female, Black/6, mouse, in vivo, ip, intraperitoneal bolus, read-out: highest studied dose found not toxic, acute) was 30 mg/kg. Also, in [3] (female, Black/6, mouse, in vivo, ip, intraperitoneal, 10 days, read-out: highest studied dose found not toxic, chronic), the NOAEL at 240 h stood at 2 mg/kg/day. Besides, the “gross necropsy, treated versus non-treated” value in [3] (setting [11]) was “no alteration”. In addition, the “liver, brain, spleen and kidney weights, treated versus non-treated” value in data set [3] (setting [11]) is listed as “identical”. Besides, the “necropsy of the major organs” value in data set [5] (C57BL/6 mice) is given as “no signs of toxicity”. The same molecule registered an EC50 in [6] of more than 1000 nM. Moreover, the half-life is 20 min in data set [7] (setting [12]) and 5 min in [7] (setting [13]).
Consider `CCC[C@H](NC(=O)[C@H](CCC(=O)O)NC(=O)[C@@H](CO)NC(C)=O)C(=O)N[C@H](C(=O)N[C@@H](C)C(=O)N[C@@H](CC(C)C)C(=O)N[C@@H](CO)C(=O)N(C)[C@@H](CCCNC(=N)N)C(=O)NCCC(N)=O)C(C)C` [SEQ ID NO:6, (D)-Ser-Glu-Nva-Val-Ala-Leu-Ser-N-MeArg-bAlaNH2] (Ac-[dS]E[Nva]VALS[NMeR][βAla]-NH2; N-terminus assumed), for which, in [8], the agonistic activity entry is “no agonistic activity” and the “cell growth without stimulation with leptin protein” value is listed as “does not influence cell growth”. Also, the “IC100, antagonistic activity against the leptin receptor” value in data set [8] (two brain tumor cell lines in vitro) lay within 10 to 100 pM. For the same molecule, the IC100 in data set [9] is listed as less than 1 nM. For the same molecule, in data set [6], the EC50 was more than 1000 nM and the pharmacology result is recorded as “super antagonist”.
As to `CCC[C@H](NC(=O)[C@H](CCCNC(=N)N)NC(=O)[C@H](CO)NC(=O)[C@H](CC(C)C)NC(=O)[C@H](C)NC(=O)[C@H](CCC)NC(=O)[C@H](CCC)NC(=O)[C@H](CCC(=O)O)NC(=O)[C@@H](N)[C@@H](C)O)C(N)=O` [SEQ ID NO:47, Thr-Glu-Nva-Nva-Ala-Leu-Ser-Arg-NvaNH2] (H-TE[Nva][Nva]ALSR[Nva]-NH2), the EC50 in [6] is more than 1000 nM. Also, the half-life in data set [7] (setting [14]) worked out at 8 min.
As for `CCC[C@H](NC(=O)[C@H](CCCNC(=N)N)NC(=O)[C@H](CO)NC(=O)[C@H](CC(C)C)NC(=O)[C@H](C)NC(=O)[C@H](CCC)NC(=O)[C@H](CCC)NC(=O)[C@H](CCC(=O)O)NC(=O)[C@@H](NC(C)=O)[C@@H](C)O)C(N)=O` [SEQ ID NO:48, AcNH-Thr-Glu-Nva-Nva-Ala-Leu-Ser-Arg-NvaNH2] (Ac-TE[Nva][Nva]ALSR[Nva]-NH2), the “cell viability profile compared with the unprotected variant” value in data set [4] is reported as “no change”. Moreover, in [7] (setting [14]), the half-life was 14 min.
The molecule `CCC[C@H](NC(=O)[C@H](CCC(=O)O)NC(=O)[C@@H](N)[C@H](C)O)C(=O)N[C@H](C(=O)N[C@@H](C)C(=O)N[C@@H](CC(C)C)C(=O)N[C@@H](CO)C(=O)N[C@@H](CCCNC(=N)N)C(=O)NCCCCCC(N)=O)C(C)C` [SEQ ID NO:49, alloThr-Glu-Nva-Val-Ala-Leu-Ser-Arg-AcpNH2] (H-[aThr]E[Nva]VALSR[Ahx]-NH2) showed an EC50 in [6] of more than 1000 nM. Also, the half-life amounted to 40 min in [7] (setting [12]) and 10 min in data set [7] (setting [13]).
Turning to `CCC[C@H](NC(=O)[C@@H](N)CCC(=O)O)C(=O)N[C@H](C(=O)N[C@@H](C)C(=O)N[C@@H](CC(C)C)C(=O)N[C@@H](CO)C(=O)N[C@@H](CCCNC(=N)N)C(=O)NCCCCCC(N)=O)C(C)C` [SEQ ID NO:51, Glu-Nva-Val-Ala-Leu-Ser-Arg-AcpNH2] (H-E[Nva]VALSR[Ahx]-NH2; N-terminus assumed), the IC100 in data set [9] is given as 100 nM. Further, in [6], the EC50 was more than 500 nM and the pharmacology entry is “weak full”.
In the case of “Alexa 680-labeled peptide of amino acid sequence SEQ ID NO:49: peptide of SEQ ID NO:49 labeled with the fluorescent dye Alexa 680 ([aThr]E[Nva]VALSR[Ahx]-NH2; not fully specified (N-terminus); printed as alloThr-Glu-Nva-Val-Ala-Leu-Ser-Arg-AcpNH2; also: Alexa 680 label, site not given here)”, the “migration into further tissues, blood-brain barrier penetration” value in data set [10] is “migrated into the tail, limbs and the brain”.

B1: leptin: neurohormone, native ObR ligand; human leptin purchased from R&D Systems (protein, listed as Homo sapiens)
chain: VPIQKVQDDTKTLIKTIVTRINDISHTQSVSAKQRVTGLDFIPGLHPILSLSKMDQTLAVYQQVLTSLPSQNVLQIANDLENLRDLLHLLAFSKSCSLPQTSGLQKPESLDGVLEASLYSTEVVALSRLQGSLQDILQQLDVSPEC
For B1, the “reduction of normal weight gain compared to untreated mice” value in [5] (0.1 mg/kg/day intraperitoneally, day 8) stood at 5%.

These data come from patent US8778890B2, “Leptin antagonist and methods of use” (Temple University—of the Commonwealth System of Higher …, priority 2009, dated 2014).
